Target: T1, Adenosine receptor A2b (Homo sapiens, UniProt P29275)
T1 sequence (P29275 whole entry): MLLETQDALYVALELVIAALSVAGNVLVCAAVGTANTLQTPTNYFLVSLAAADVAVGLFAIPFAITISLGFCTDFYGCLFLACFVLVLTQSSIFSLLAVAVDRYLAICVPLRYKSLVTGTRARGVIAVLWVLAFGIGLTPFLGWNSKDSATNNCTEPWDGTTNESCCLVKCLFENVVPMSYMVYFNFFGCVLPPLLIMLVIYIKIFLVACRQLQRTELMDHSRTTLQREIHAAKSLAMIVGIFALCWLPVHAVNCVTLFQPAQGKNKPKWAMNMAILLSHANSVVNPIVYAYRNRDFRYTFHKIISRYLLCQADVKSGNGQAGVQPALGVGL
Assay: Displacement of [3H]DPCPX from human adenosine A2B receptor expressed in HEK cell membrane incubated for 30 mins by microplate beta scintillation counting based radioligand inhibition assay

CCNC(=O)[C@H]1O[C@@H](n2cnc3c(NCCCCc4ccccc4)ncnc32)[C@H](O)[C@@H]1O
Ki: 3.33 µM

Reference: BindingDB's records for doi:10.1016/j.ejmech.2021.113607 (Institute of Medical Biology Pas, 2021)
